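Cells were grown in 96-well plates and exposed to each compound for 48 hours at five concentrations; endpoints were interpolated linearly between bracketing concentrations, or set to the highest concentration if not reached. Definition used: TGI = concentration required for complete inhibition of growth.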
Experiments:
Assay in all cases: NCI anticancer screen, dose series, 48 h
786-0 renal = test system: 786-0 renal
A549 NSCLC = test system: A549 NSCLC
ACHN renal = test system: ACHN renal
BT-549 breast = test system: BT-549 breast
CAKI-1 renal = test system: CAKI-1 renal
CCRF-CEM leukemia = test system: CCRF-CEM leukemia
COLO 205 colon = test system: COLO 205 colon
DU-145 prostate = test system: DU-145 prostate
EKVX NSCLC = test system: EKVX NSCLC
HCC-2998 colon = test system: HCC-2998 colon
HCT-116 colon = test system: HCT-116 colon
HCT-15 colon = test system: HCT-15 colon
HL-60(TB) leukemia = test system: HL-60(TB) leukemia
HOP-62 NSCLC = test system: HOP-62 NSCLC
HS 578T breast = test system: HS 578T breast
HT29 colon = test system: HT29 colon
IGROV1 ovarian = test system: IGROV1 ovarian
K-562 leukemia = test system: K-562 leukemia
KM12 colon = test system: KM12 colon
LOX IMVI melanoma = test system: LOX IMVI melanoma
M14 melanoma = test system: M14 melanoma
MALME-3M melanoma = test system: MALME-3M melanoma
MCF7 breast = test system: MCF7 breast
MDA-MB-435 = test system: MDA-MB-435
MDA-N = test system: MDA-N
MOLT-4 leukemia = test system: MOLT-4 leukemia
NCI-H226 lung = test system: NCI-H226 lung
NCI-H23 lung = test system: NCI-H23 lung
NCI-H460 lung = test system: NCI-H460 lung
NCI-H522 lung = test system: NCI-H522 lung
NCI/ADR-RES ovarian = test system: NCI/ADR-RES ovarian
OVCAR-3 ovarian = test system: OVCAR-3 ovarian
OVCAR-4 ovarian = test system: OVCAR-4 ovarian
OVCAR-5 ovarian = test system: OVCAR-5 ovarian
OVCAR-8 ovarian = test system: OVCAR-8 ovarian
PC-3 prostate = test system: PC-3 prostate
RPMI-8226 leukemia = test system: RPMI-8226 leukemia
SF-268 CNS = test system: SF-268 CNS
SF-295 CNS = test system: SF-295 CNS
SF-539 CNS = test system: SF-539 CNS
SK-MEL-2 melanoma = test system: SK-MEL-2 melanoma
SK-MEL-28 melanoma = test system: SK-MEL-28 melanoma
SK-MEL-5 melanoma = test system: SK-MEL-5 melanoma
SK-OV-3 ovarian = test system: SK-OV-3 ovarian
SN12C renal = test system: SN12C renal
SNB-19 CNS = test system: SNB-19 CNS
SNB-75 CNS = test system: SNB-75 CNS
SR leukemia = test system: SR leukemia
SW-620 colon = test system: SW-620 colon
T-47D breast = test system: T-47D breast
TK-10 renal = test system: TK-10 renal
U251 CNS = test system: U251 CNS
UACC-257 melanoma = test system: UACC-257 melanoma
UACC-62 melanoma = test system: UACC-62 melanoma
UO-31 renal = test system: UO-31 renal
A498 renal = test system: A498 renal
HOP-92 NSCLC = test system: HOP-92 NSCLC
MDA-MB-231 breast = test system: MDA-MB-231 breast
RXF 393 renal = test system: RXF 393 renal

Measured: TGI

Cc1ncc([N+](=O)[O-])n1CCNC(=O)CCn1ccnc1[N+](=O)[O-]
> 100 µM: 786-0 renal | A549 NSCLC | ACHN renal | BT-549 breast | CAKI-1 renal | CCRF-CEM leukemia | COLO 205 colon | DU-145 prostate | EKVX NSCLC | HCC-2998 colon | HCT-116 colon | HCT-15 colon | HL-60(TB) leukemia | HOP-62 NSCLC | HS 578T breast | HT29 colon | IGROV1 ovarian | K-562 leukemia | KM12 colon | LOX IMVI melanoma | M14 melanoma | MALME-3M melanoma | MCF7 breast | MDA-MB-435 | MDA-N | MOLT-4 leukemia | NCI-H226 lung | NCI-H23 lung | NCI-H460 lung | NCI-H522 lung | NCI/ADR-RES ovarian | OVCAR-3 ovarian | OVCAR-4 ovarian | OVCAR-5 ovarian | OVCAR-8 ovarian | PC-3 prostate | RPMI-8226 leukemia | SF-268 CNS | SF-295 CNS | SF-539 CNS | SK-MEL-2 melanoma | SK-MEL-28 melanoma | SK-MEL-5 melanoma | SK-OV-3 ovarian | SN12C renal | SNB-19 CNS | SNB-75 CNS | SR leukemia | SW-620 colon | T-47D breast | TK-10 renal | U251 CNS | UACC-257 melanoma | UACC-62 melanoma | UO-31 renal

O=C(O)Cc1[nH]cnc1C(=O)O
> 100 µM: 786-0 renal | A498 renal | A549 NSCLC | ACHN renal | BT-549 breast | CAKI-1 renal | CCRF-CEM leukemia | COLO 205 colon | DU-145 prostate | EKVX NSCLC | HCC-2998 colon | HCT-116 colon | HCT-15 colon | HL-60(TB) leukemia | HOP-62 NSCLC | HOP-92 NSCLC | HS 578T breast | HT29 colon | IGROV1 ovarian | K-562 leukemia | KM12 colon | LOX IMVI melanoma | M14 melanoma | MALME-3M melanoma | MCF7 breast | MDA-MB-231 breast | MDA-MB-435 | MDA-N | MOLT-4 leukemia | NCI-H226 lung | NCI-H23 lung | NCI-H460 lung | NCI-H522 lung | NCI/ADR-RES ovarian | OVCAR-3 ovarian | OVCAR-4 ovarian | OVCAR-5 ovarian | OVCAR-8 ovarian | PC-3 prostate | RPMI-8226 leukemia | RXF 393 renal | SF-268 CNS | SF-295 CNS | SF-539 CNS | SK-MEL-2 melanoma | SK-MEL-28 melanoma | SK-MEL-5 melanoma | SK-OV-3 ovarian | SN12C renal | SNB-19 CNS | SNB-75 CNS | SW-620 colon | T-47D breast | TK-10 renal | U251 CNS | UACC-257 melanoma | UACC-62 melanoma | UO-31 renal

— PubChem BioAssay (NCI)
